# The supplement of paper PMC12592484
# Columns and labels:
# Assay in all cases: drug sensitivity score (DSS2, normalised partial AUC of dose-response, 72 h CellTiter-Glo viability) (DSS (dimensionless)); higher = more sensitive (stronger growth inhibition / cytotoxicity); extreme values may be limits of the assay
# [1] = test system: 22Rv1
# Procedure, shortened: (§1)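 In BREEZE, the drug sensitivity score was derived as a partial area under a fitted logistic dose–response curve over the log of that curve's upper asymptote; a higher score marks a more sensitive response. The input came from low-passage primary prostate cancer-associated fibroblasts, PF179T, WPMY-1, LNCaP and 22Rv1 cells, each seeded into 384-well plates with compounds pre-dispensed at five doses spanning a 10,000-fold range. CellTiter-Glo 2.0 luminescence after 72 h gave viability, which was normalized to vehicle and positive-control wells.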
# [2] = test system: CAF#1 (primary prostate cancer-associated fibroblasts of myCAF-like type)
# Procedure, shortened: as §1
# [3] = test system: CAF#2 (primary prostate cancer-associated fibroblasts of iCAF-like type)
# Procedure, shortened: as §1
# [4] = test system: CAF#3 (primary prostate cancer-associated fibroblasts of myCAF-like type)
# Procedure, shortened: as §1
# [5] = test system: CAF#4 (primary prostate cancer-associated fibroblasts of iCAF-like type)
# Procedure, shortened: as §1
# [6] = test system: CAF#5 (primary prostate cancer-associated fibroblasts of myCAF-like type)
# Procedure, shortened: as §1
# [7] = test system: CAF#6 (primary prostate cancer-associated fibroblasts of iCAF-like type)
# Procedure, shortened: as §1
# [8] = test system: CAF#7 (primary prostate cancer-associated fibroblasts of myCAF-like type)
# Procedure, shortened: as §1
# [9] = test system: LNCAP
# Procedure, shortened: as §1
# [10] = test system: PF179T
# Procedure, shortened: as §1
# [11] = test system: WPMY-1
# Procedure, shortened: as §1
Structure (SMILES),drug sensitivity score [1],drug sensitivity score [2],drug sensitivity score [3],drug sensitivity score [4],drug sensitivity score [5],drug sensitivity score [6],drug sensitivity score [7],drug sensitivity score [8],drug sensitivity score [9],drug sensitivity score [10],drug sensitivity score [11]
COc1cc(N2CCN(C)CC2)ccc1Nc1nccc(-c2cn(C)c3cnccc23)n1 [AZ191] (tested concentration range 1-10000 nM),6.4,6,5.7,7.1,1.9,4.6,2.3,2.1,3.5,2.7,6.8
COc1cc(OC2CCN(C)CC2)ccc1Nc1ncc2c(n1)n(C1CCCC1)c(=O)n2C [AZ 3146] (tested concentration range 1-10000 nM),7.5,1.8,4.3,3.1,0.8,0.7,1.6,2.8,4.6,2.3,4.8
COc1cc2ncnc(Nc3cccc(Cl)c3F)c2cc1OC(=O)N1CCN(C)C[C@H]1C [AZD3759] (tested concentration range 0.1-1000 nM),0,0,0,0.4,0,0,0,0,0,0,0
Cc1[nH]nc(C(F)(F)F)c1Cc1sc2c(c1C(=O)N1C[C@](C)(O)CO1)c(=O)n(C)c(=O)n2C(C)C [AZD3965] (tested concentration range 0.1-1000 nM),0,0.1,0.1,0,0,0,0,0,10.5,0,0
COc1cc(CCc2cc(NC(=O)c3ccc(N4CC(C)NC(C)C4)cc3)n[nH]2)cc(OC)c1 (stereo unspecified) [AZD4547] (tested concentration range 0.1-1000 nM),0,1.1,2.5,6.7,0.6,1.3,5.8,13.1,0.3,3.5,0.2
CN(C)C(=O)c1ccc(S(=O)(=O)c2ccc(NC(=O)[C@@](C)(O)C(F)(F)F)c(Cl)c2)cc1 [AZD7545] (tested concentration range 1-10000 nM),0.2,0,0,0.4,0,0,0,0,2.7,0,0.1
Cc1ncc(-c2ccnc(Nc3ccc(S(C)(=O)=O)cc3)n2)n1C(C)C [AZD-5438] (tested concentration range 1-10000 nM),7.6,4.1,3.9,4,6.8,2.9,3,5.6,10.2,2.5,8.7
C[C@@H](Nc1cc(F)cc(F)c1)c1cc(C(=O)N(C)C)cc2c(=O)cc(N3CCOCC3)oc12 [AZD-8186] (tested concentration range 0.1-1000 nM),1,2.9,3.4,4.2,2.8,2.8,2.2,3.9,12.7,6.3,1
CCN1CCN(Cc2ccc(Nc3ncc(F)c(-c4cc(F)c5nc(C)n(C(C)C)c5c4)n3)nc2)CC1 [Abemaciclib] (tested concentration range 0.2-2500 nM),11,0,5.6,0,0.2,0,0.1,0,8.7,0.6,6
CN(C)Cc1c(C(=O)NCCOc2ccc(C(=O)NO)cc2)oc2ccccc12 [Abexinostat] (tested concentration range 1-10000 nM),19.8,10,12.2,8.9,6.9,9.3,9.9,9,19.5,10.6,21.6
C[C@]12CC[C@H](O)CC1=CC[C@@H]1[C@@H]2CC[C@]2(C)C(c3cccnc3)=CC[C@@H]12 [Abiraterone] (tested concentration range 0.5-5000 nM),0,0,0,0,0,1.5,0,0,1.3,0,0
CC#CC(=O)N1CCC[C@H]1c1nc(-c2ccc(C(=O)Nc3ccccn3)cc2)c2c(N)nccn12 [Acalabrutinib] (tested concentration range 0.1-1000 nM),0,0.1,0.4,0,0,0.8,0,0,0,0,0
COc1cc(C)c(/C=C/C(C)=C/C=C/C(C)=C/C(=O)O)c(C)c1C [Acitretin] (tested concentration range 1-10000 nM),0,1.7,4,0.2,0.1,0.8,0.4,0,0,6.3,0
C=CCn1c(=O)c2cnc(Nc3ccc(N4CCN(C)CC4)cc3)nc2n1-c1cccc(C(C)(C)O)n1 [Adavosertib] (tested concentration range 1-10000 nM),11.9,7.3,10.3,2.7,8.9,5.9,4,7.3,17,10.4,21.5
CN(C)C/C=C/C(=O)Nc1cc2c(Nc3ccc(F)c(Cl)c3)ncnc2cc1O[C@H]1CCOC1 [Afatinib] (tested concentration range 0.1-1000 nM),3.4,0.3,0.3,0,0,0,0,0,2.7,0,0
Cn1ncc(Cl)c1-c1cc(C(=O)N[C@H](CN)Cc2cccc(F)c2)sc1Cl [Afuresertib] (tested concentration range 0.1-1000 nM),4.6,3.2,1.5,0,1.7,2,0.6,0,17,0.1,0.6
CCc1cc2c(cc1N1CCC(N3CCOCC3)CC1)C(C)(C)c1[nH]c3cc(C#N)ccc3c1C2=O [Alectinib] (tested concentration range 0.1-1000 nM),0.2,1,0.2,0,0,0.3,0,0,0.5,0,0
COc1cc(Nc2ncc3c(n2)-c2ccc(Cl)cc2C(c2c(F)cccc2OC)=NC3)ccc1C(=O)O [Alisertib] (tested concentration range 1-10000 nM),0,4.9,9.4,3.3,4.5,6,1.2,3.5,9.6,7.6,16.3
Oc1ncnc2[nH]ncc12 [Allopurinol] (tested concentration range 1-10000 nM),0,0,0,0,0,0,0,0,0,0,0
Cc1nc(NC(=O)N2CCC[C@H]2C(N)=O)sc1-c1ccnc(C(C)(C)C(F)(F)F)c1 [Alpelisib] (tested concentration range 0.2-2500 nM),4.8,2.9,2.5,2.1,2.6,3.1,3,3.4,1.1,0,1.3
CN1CC[C@H](c2c(O)cc(O)c3c(=O)cc(-c4ccccc4Cl)oc23)[C@H](O)C1 [Alvocidib] (tested concentration range 1-10000 nM),17.4,15.9,16.8,16.5,12.7,15.4,13.9,15.4,18.2,10,16.5
CCN(CC)CCNC(=O)c1c(C)[nH]c(/C=C2\C(=O)Nc3ccc(-c4csc(-c5ccccc5)n4)cc32)c1C [Amcasertib] (tested concentration range 1-10000 nM),6.8,7,2.3,0,7.1,6.6,0,0,3.5,0,0
CCC1(c2ccc(N)cc2)CCC(=O)NC1=O (stereo unspecified) [Aminoglutethimide] (tested concentration range 1-10000 nM),0,0,0,0.2,0,0,0,0,0.3,0,0
COc1cc(NS(C)(=O)=O)ccc1Nc1c2ccccc2nc2ccccc12 [Amsacrine] (tested concentration range 1-10000 nM),10.1,3.2,6.7,3.1,2.4,2.2,3.8,7.1,17,7.7,11.1
O=C1CN2Cc3c(ccc(Cl)c3Cl)N=C2N1 [Anagrelide] (tested concentration range 1-10000 nM),0,8.4,0.6,7.2,0,0.6,0,8.8,0,0,0
CC(C)(C#N)c1cc(Cn2cncn2)cc(C(C)(C)C#N)c1 [Anastrozole] (tested concentration range 1-10000 nM),0,0,0,0,0,0,0,0,0,0,0
